Results: US12371454B2, “Cyclic peptide compound having Kras inhibitory action” (priority 2019, dated 2025)
Starred links: 1 amine or outer side, 2 acyl side, 3 side chain; linkers in the order of their positions; H or OH if unused. Positions of bridges follow the written chain, without caps; N, C: chain ends. Non-standard residues stand in square brackets, D forms with d. Residues, ends and D or L forms follow the SMILES beside them. *: point of attachment. hPhe(3,5-F2-4-CF3) = N[C@@H](CCc1cc(F)c(C(F)(F)F)c(F)c1)C(=O)O; hPhe(3-Cl-4-CF3) = N[C@@H](CCc1ccc(C(F)(F)F)c(Cl)c1)C(=O)O; NMePhe(4-CF3) = CN[C@@H](Cc1ccc(C(F)(F)F)cc1)C(=O)O; NEtPhe(4-Me) = CCN[C@@H](Cc1ccc(C)cc1)C(=O)O; NMePhe(2-Cl) = CN[C@@H](Cc1ccccc1Cl)C(=O)O; NMedβ3hAla = C[C@H](CC(=O)[*:2])N(C)[*:1]; X32 = O=C(CN(CCN1CCC(F)(F)CC1)[*:1])[*:2]; NMeGly(cPent) = CN[C@H](C(=O)O)C1CCCC1; Pro(4,4-F2) = O=C(O)[C@@H]1CC(F)(F)CN1; Ala(cPent) = N[C@@H](CC1CCCC1)C(=O)O; NMeCha = CN[C@@H](CC1CCCCC1)C(=O)O; hhPhe = N[C@@H](CCCc1ccccc1)C(=O)O; Hyp = O=C(O)[C@@H]1C[C@@H](O)CN1; NMeChg = CN[C@H](C(=O)O)C1CCCCC1; NMeI = CC[C@H](C)[C@H](NC)C(=O)O; NMeD = CN[C@@H](CC(=O)O)C(=O)O; NMeL = CN[C@@H](CC(C)C)C(=O)O; NMeV = CN[C@H](C(=O)O)C(C)C; d(β3hA) = C[C@@H](N)CC(=O)O; NMeS = CN[C@@H](CO)C(=O)O; NMeA = CN[C@@H](C)C(=O)O; Piperidide = C1CCN(*)CC1; Pyrrolidide = C1CCN(*)C1; dNMeA = CN[C@H](C)C(=O)O; Ac5c = NC1(C(=O)O)CCCC1; Aze = O=C(O)[C@@H]1CCN1; Ac4c = NC1(C(=O)O)CCC1; Sar = CNCC(=O)O

biological target: T1, Kras and SOS1 (biotin-tagged human Kras loaded with GDP, His-tagged human SOS1) (Homo sapiens, UniProt P01116, G12D); test: Protein-protein interaction inhibition between Kras and SOS1 (KrasGl2D-SOS PPI) using AlphaScreen; assay type: binding; details: AlphaScreen; biotin-tagged human Kras loaded with GDP, His-tagged human SOS1; read-out: KRAS G12D-SOS PPI IC50
T1 construct: made in house; host or cells: E. coli (stated for Kras only)
T1 sequence (P01116 1-188 isoform P01116-2 G12D): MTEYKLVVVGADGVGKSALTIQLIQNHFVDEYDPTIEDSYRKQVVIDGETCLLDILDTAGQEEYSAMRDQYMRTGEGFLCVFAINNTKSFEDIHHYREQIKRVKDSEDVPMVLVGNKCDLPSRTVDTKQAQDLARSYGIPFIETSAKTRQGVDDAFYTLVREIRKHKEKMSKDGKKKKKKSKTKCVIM
Outline: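 Binding between SOS1 and Kras is detected as bead-proximity luminescence: illuminate Ni-conjugated donors (680 nm), collect 520-620 nm emission from streptavidin-conjugated acceptors; Kras carries biotin and GDP loaded after purification, SOS1 carries a His tag.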

Row | Compound | IC50
1 | CC[C@H](C)[C@@H]1NC(=O)[C@H](C)N(C)C(=O)C[C@@H](C)NC(=O)[C@H](C2CCCC2)N(C)C(=O)C2(CCCC2)NC(=O)[C@@H]2CCCN2C(=O)[C@H](CCc2ccc(C(F)(F)F)c(Cl)c2)NC(=O)[C@@H](C)N(C)C(=O)[C@H](CC(C)C)N(C)C(=O)CN(C)C(=O)CN(C)C1=O [Compound 621] (cyclo([Ac5c][NMeGly(cPent)][d(β3hA)][NMeA]I[Sar][Sar][NMeL][dNMeA][hPhe(3-Cl-4-CF3)]P)) | 0.059 µM
2 | CC[C@H](C)[C@@H]1NC(=O)[C@H](CC(C)C)N(C)C(=O)C[C@@H](C(=O)N2CCCCC2)N(C)C(=O)[C@H](C2CCCCC2)N(C)C(=O)C2(CCCC2)NC(=O)[C@@H]2CCCN2C(=O)[C@H](CCc2ccc(C(F)(F)F)c(Cl)c2)NC(=O)CN(C)C(=O)[C@H](COC)N(C)C(=O)CN(C)C(=O)CN(C)C1=O [Compound 623] ([NMeL]I[Sar][Sar][NMeS](Me)[Sar][hPhe(3-Cl-4-CF3)]P[Ac5c][NMeChg][NMeD]-Piperidide; lactam N-11) | 0.0018 µM
3 | CC[C@H](C)[C@@H]1NC(=O)[C@H](C)N(C)C(=O)C[C@@H](C(=O)N2CCCC2)N(C)C(=O)[C@H](C(C)C)N(C)C(=O)[C@H](C)NC(=O)[C@H](Cc2ccccc2Cl)N(C)C(=O)[C@H](CCc2ccc(C(F)(F)F)c(Cl)c2)NC(=O)CN(C)C(=O)[C@H](CC2CCCCC2)N(C)C(=O)CN(C)C(=O)CN(C)C1=O [Compound 624] ([NMeA]I[Sar][Sar][NMeCha][Sar][hPhe(3-Cl-4-CF3)][NMePhe(2-Cl)]A[NMeV][NMeD]-Pyrrolidide; lactam N-11) | 0.16 µM
4 | CCO[C@@H]1C[C@H]2C(=O)NC3(CCC3)C(=O)N(C)[C@@H]([C@@H](C)CC)C(=O)N(C)[C@H](C)CC(=O)N(C)[C@@H](CC(C)C)C(=O)N[C@@H]([C@@H](C)CC)C(=O)N(C)[C@@H](C)C(=O)N3CC[C@H]3C(=O)N(CC)[C@@H](Cc3ccc(C)cc3)C(=O)N(C)CC(=O)N[C@@H](CCc3ccc(C(F)(F)F)c(Cl)c3)C(=O)N2C1 [Compound 626] (cyclo([Ac4c][NMeI][NMedβ3hAla][NMeL]I[NMeA][Aze][NEtPhe(4-Me)][Sar][hPhe(3-Cl-4-CF3)][Hyp](Et))) | 0.0024 µM
5 | CC(C)C[C@H]1C(=O)N[C@@H](CC2CCCC2)C(=O)N(C)CC(=O)N(C)CC(=O)N(C)[C@@H](CC2CCCCC2)C(=O)N(C)CC(=O)N[C@@H](CCc2ccc(C(F)(F)F)c(Cl)c2)C(=O)N2CCC[C@H]2C(=O)NC2(CCCC2)C(=O)N(C)[C@@H](C(C)C)C(=O)N(C)[C@H](C(=O)N2CCCCC2)CC(=O)N1C [Compound 627] ([NMeL][Ala(cPent)][Sar][Sar][NMeCha][Sar][hPhe(3-Cl-4-CF3)]P[Ac5c][NMeV][NMeD]-Piperidide; lactam N-11) | 0.013 µM
6 | CC[C@H](C)[C@@H]1NC(=O)[C@H](CC(C)C)N(C)C(=O)C[C@@H](C)N(C)C(=O)[C@H](C2CCCC2)N(C)C(=O)C2(CCCC2)NC(=O)[C@@H]2CC(F)(F)CN2C(=O)[C@H](CCc2cc(F)c(C(F)(F)F)c(F)c2)NC(=O)CN(C)C(=O)[C@H](CC2CCCCC2)N(C)C(=O)[C@@H]2CCN2C(=O)[C@H](C)N(C)C1=O [Compound 628] (cyclo([Ac5c][NMeGly(cPent)][NMedβ3hAla][NMeL]I[NMeA][Aze][NMeCha][Sar][hPhe(3,5-F2-4-CF3)][Pro(4,4-F2)])) | 0.02 µM
7 | CC[C@H](C)[C@@H]1NC(=O)[C@H](CC(C)C)N(C)C(=O)C[C@@H](C(=O)N2CCCCC2)N(C)C(=O)[C@H]([C@@H](C)CC)N(C)C(=O)C2(CCCC2)NC(=O)[C@@H]2CCCN2C(=O)[C@H](CCc2ccc(C(F)(F)F)c(Cl)c2)NC(=O)CN(C)C(=O)[C@H](Cc2ccc(C(F)(F)F)cc2)N(C)C(=O)[C@@H]2CCN2C(=O)[C@H](C)N(C)C1=O [Compound 630] ([NMeL]I[NMeA][Aze][NMePhe(4-CF3)][Sar][hPhe(3-Cl-4-CF3)]P[Ac5c][NMeI][NMeD]-Piperidide; lactam N-11) | 0.0017 µM
8 | CC[C@H](C)[C@@H]1NC(=O)[C@H](C)N(C)C(=O)C[C@@H](C(=O)N2CCCCC2)N(C)C(=O)[C@H](C2CCCCC2)N(C)C(=O)C2(CCCC2)NC(=O)[C@@H]2CCCN2C(=O)[C@H](CCCc2ccccc2)NC(=O)CN(C)C(=O)[C@H](CC2CCCCC2)N(C)C(=O)CN(C)C(=O)CN(C)C1=O [Compound 633] ([NMeA]I[Sar][Sar][NMeCha][Sar][hhPhe]P[Ac5c][NMeChg][NMeD]-Piperidide; lactam N-11) | 0.12 µM
9 | CC[C@H](C)[C@@H]1NC(=O)[C@H](CC(C)C)N(C)C(=O)C[C@@H](C)NC(=O)[C@H](C(C)C)N(C)C(=O)C2(CCCC2)NC(=O)[C@@H]2CCCN2C(=O)[C@H](CCc2ccc(C(F)(F)F)c(Cl)c2)NC(=O)CN(C)C(=O)[C@H](CC2CCCCC2)N(C)C(=O)CN(C)C(=O)CN(CCN2CCC(F)(F)CC2)C1=O [Compound 635] (cyclo([Ac5c][NMeV][d(β3hA)][NMeL]I[X32][Sar][NMeCha][Sar][hPhe(3-Cl-4-CF3)]P)) | 0.19 µM
